Marks after values point to notes of the source that are not given here.
What was measured:
TNF-α [1] = assay: LPS-stimulated TNF-α production in human whole blood (ELISA); format: cell-based; conditions: for TNF-α plasma + LPS: 48 h preincubation, LPS 10 μg/ml 20 h
Procedure: Blood and buffy coat fractions were supplied by the Scottish National Blood Transfusion Service (SNBTS), Glasgow, UK. Ficoll Histopaque (1.077 g/l), Lipopolysaccharide (from Salmonella abortus equi) was purchased from Sigma-Aldrich Co. Ltd. (UK). PGE was from Cayman Chemical Co. (Ann Arbor, MI). Human TNF-α antibody pairs for TNF-α ELISA assays was from Invitrogen/Life Sciences Europe. All drugs were dissolved in RPMI 1640 medium from Gibco BRL, UK.
Blood was used without any further treatment following donation. It was kindly supplied by the Scottish National Blood Transfusion Service from normal healthy donors as defined by ensuring they all tested negative for HIV, hepatitis B & C, CMV and parasitic diseases such as malaria (as tested by the National Blood Transfusion service). They were also confirmed by our laboratory to be free of acute inflammatory disease at the time the blood was taken by measuring the basal level of TNF-α which was always […].
Aliquots (800 μl) of whole blood were incubated with the compound dissolved in RPMI 1640, as indicated in the results, for the appropriate preincubation period after which LPS was added and incubations continued for a further 20 hr at 37° C. in a humidified (100%) atmosphere of 5% CO2 in air. At the end of the incubation period, supernatants from either plasma or culture medium were collected by centrifugation at 10,000 g for 30 seconds at room temperature and TNF-α levels measured using a human TNF-α ELISA system (BioSource Europe S.A., Belgium, supplied by Invitrogen).
Table showing the effect of various idoBR1 concentrations on LPS-stimulated TNF-α production in human blood. Whole blood was preincubated for 48 h with varying concentrations of idoBR1 after which LPS (10 μg/ml) was added and incubations continued for a further 20 h. Following incubation at 37° C. (5% CO2, 100% humidity) plasma was collected from blood by centrifugation and the levels of TNF-α In plasma samples were measured by ELISA.
Table showing the effect of various cucumber extract (0.09% idoBR1) concentrations on LPS-stimulated TNF-α production in human blood. Whole blood was preincubated for 48 h with varying concentrations of cucumber Q-Actin extract after which LPS (10 μg/ml) was added and incubations continued for a further 20 h. Following incubation at 37° C. (5% CO2, 100% humidity) plasma was collected from blood by centrifugation and the levels of TNF-α in plasma samples were measured by ELISA. Values represent the means±s.d. of n=3. * denotes P<0.05 compared to LPS alone.

IL-1β = IL-1β ELISA in LPS stimulated THP-1 cells; format: cell-based, human; conditions: for % reduction in IL-1 β levels: vs LPS control
Procedure: The cells in an 80% confluence culture flask were aspirated and centrifuged at 1500 rpm for 5 mins. The cell pellet was then resuspended in 1 ml of RPMI complete media and 1×10^5 cells/well seeded to each well of the 96 well microtiter plate. After 24 hrs incubation, PMA (10 ng/ml) was added to the 96 well plate to differentiate THP-1 cells to determine the TNF-α production, THP-1 cells were pretreated for 1 hr with idoBR1 or cucumber extract-Q-actin (batch no. […] Post incubation, the cell supernatant from each of the wells was aspirated into sterile micro centrifuge tubes and centrifuged at 1000 rpm for 2-3 mins. The cell supernatant was then used for evaluation of presence of cytokines using ELISA.
ELISA plates coated with antibodies for IL-12, IL-1β, or IL-10 (R&D Systems, USA) were used for the following study. To each well 50 μL of Assay Diluent RD1F was added after mixing well. 200 μL of sample (idoBR1 or extract), or control per well was added and covered with an adhesive strip. Following incubation for 2 hours at room temperature each well was aspirated and washed 4 times with Wash Buffer (400 μl). After the last wash, any remaining Wash Buffer was removed by aspirating or decanting. The plates were inverted and blotted against clean paper towels. To each well 200 μl of appropriate human conjugate was added and these then covered with a new adhesive strip and incubated for 1 hour at room temperature. The aspiration/wash was then repeated. 200 μL of Substrate Solution was then added to each well and further incubated for 20 minutes at room temperature protected from light. 50 μL of Stop Solution was added to each well. The colour in the wells was changed from blue to yellow. OD was measured within 30 minutes at 450 nm.

[2] = Oral availability: idoBR1 in urine after eating cucumbers (GC-MS); format: in vivo, human; conditions: for excretion of idoBR1 in urine: volunteer, roughly 13 mg consumed in cucumbers
Procedure: Parisien pickling cucumbers (seeds purchased from Lidl 2013) were grown organically and three eaten at midday by each of one volunteer and one volunteer. […] The volunteers ate no Cucurbitaceae food for 15 hours prior to the experiment. Urine samples pre-consumption were collected over 3 hours as t=0 and then samples collected for 9 hours for the […] and 15 hours for the person. The 30 g cucumber sample was homogenised in 50% ethanol (aq) and after 15 hours extraction it was filtered and the idoBR1 fraction bound to cation exchange resin IR120 in the H+ form. After washing the column with water, the material displaced with 2M ammonia solution was dried (52.3 mg) and analysed by GC-MS after trimethylsilylation using Pierce TriSil. The remaining 51 mg of material then had 0.2 mg of castanospermine added for comparative quantification purposes. The entire urine samples were similarly treated using cation exchange resin except the material displaced by ammonia solution was run a second time through the same cation exchange resin (now in the ammonium form) to reduce strong bases (which will bind to IR120 in the ammonium form) and only the unretained material was kept. The urine idoBR1 fractions were dried and made up to 20 ml in water. 500 ul of each was sampled and 0.025 mg of castanospermine added.
This was carried out on a Perkin Elmer Turbomass Gold GCMS. The spectrum of the major peak at 10.33 mins matched the GCMS spectrum of authentic idoBR1, 900288 PhytoQuest Ltd, UK). The relative response factor was calculated between authentic BR1 (900125, PhytoQuest Ltd) and castanospermine is 1:2. Assuming the same response factor, the amount of idoBR1 was estimated as 1.5 mg in the 30 g sample which means that the volunteers consumed roughly 260/30×1 5 mg=13 mg of idoBR1.

TNF-α [3] = assay: TNF-α production by LPS-stimulated BV-2 microglial cells; format: cell-based, murine; conditions: 24 hours
Procedure: idoBR1 was used in cell cultures of murine microglial cell line BV-2 at 0, 20, 40 and 80 μg/ml plus and minus sub-optimal LPS. Production of TNF-α and nitrite was measured after 24 hours.

## O=C(O)[C@@H]1NC[C@H](O)[C@@H](O)[C@@H]1O [idoBR1, (2R,3R,4R,5S)-3,4,5-trihydroxypiperidine-2-carboxylic acid]
TNF-α [1]
  effective concentration on LPS-induced TNF-α in human blood: below 10 μM
TNF-α [1]; 0.01 μM
  TNF-α plasma + LPS: 1680 pg/mL
TNF-α [1]; 0.1 μM
  TNF-α plasma + LPS: 950* pg/ml
TNF-α [1]; 1 μM
  TNF-α plasma + LPS: 490* pg/ml
TNF-α [1]; 10 μM
  TNF-α plasma + LPS: 500* pg/ml
TNF-α [1]; 10 μM, no LPS
  TNF-α plasma (no LPS): 200 pg/mL
TNF-α [1]; 48 hr preincubation, human blood
  IC50: 182 nM
TNF-α [1]; second study, with pre-incubation
  concentration with significant activity in human blood: 0.01 µM
IL-1β; 12.5 μg/mL
  IL-1β: 133.30 pg/mL
  % reduction in IL-1 β levels: 9.31%
IL-1β; 25 μg/mL
  IL-1β: 127.63 pg/mL
  % reduction in IL-1 β levels: 13.17%
IL-1β; 50 μg/mL
  IL-1β: 120.36 pg/mL
  % reduction in IL-1 β levels: 18.12%
IL-1β; 100 μg/mL
  IL-1β: 111.60 pg/mL
  % reduction in IL-1 β levels: 24.07%
[2]; human urine
  conjugation in the urine analysis: No obvious conjugation
[2]; human, eaten cucumber
  oral availability: available orally
[2]; after 15 hours
  excretion of idoBR1 in urine: approximately 2.4 mg
[2]; samples collected for 9 hours
  excretion of idoBR1 in urine: approximately 2.1 mg
TNF-α [3]; 20 μg/ml + LPS
  TNF-α production: 500** pg/ml
TNF-α [3]; 40 μg/ml + LPS
  TNF-α production: 470** pg/ml
TNF-α [3]; 80 μg/ml + LPS
  TNF-α production: 410*** pg/ml
